According to US6306899A (priority 1999, dated 2001):
Values after ≈ are worked out from the molar mass of the structure shown. “Also recorded” adds a separate entry of the source.

Key:
[1] = tested on: HBV; details: background; in words; cited from earlier work
[2] = tested on: WT10; assay: Activity against wild-type HBV (WT10) in transfected HepG2 cells; assay type: cell-based, Hepatitis B virus; details: in words
[3] = tested on: 3TC resistant HBV (DM2); assay: Activity against 3TC resistant HBV (DM2, L526MM550V) in transfected HepG2 cells; assay type: cell-based, Hepatitis B virus; details: in words; for effect on 3TC resistant HBV: DM2, HepG2, 9 days
[4] = tested on: HBV RNA; assay: HBV RNA level (Northern analysis); assay type: cell-based, Hepatitis B virus; details: in words
Description: The biological activity of the present compounds was assessed as described by Doong, S-L, et al., Proc. Natl. Acad. Sci. U.S.A 88, 8495-8499 (1991). The human hepatoma cell line carrying HBV (cell line designated 2.2.15) provided by Dr. G. Aces was used in the study. Price, et al., Proc. Natl. Acad. Sci. U.S.A. 86, 8541 (1989). Briefly, six day-old cultures were treated with varying concentrations of the drug in the culture medium (Minimum essential medium with Earl's salts and 10% fetal bovine serum). The drug was left in the culture medium for a period of 3 days after which period the medium was aspirated and fresh medium containing the same concentration(s) of the drug was added. […] Inhibition of the viral replication was determined by the comparison of the viral DNA from drug-treated versus control cultures not treated with the drug. In addition, supernatant obtained from the polyethylene glycol precipitation of the cell culture medium (above) was measured for the presence of two HBV antigens (HBsAg and HBeAg) using enzyme immunoassay kits from Abbott Laboratories, Inc. [HBs (rDNA) EIA and HBe (rDNA)EIA], pursuant to standard practice (FIG. 3A). RNA levels were determed using Northern analysis with cellular albumin RNA being measured as a load control to standardize the quality of the HBV RNA measurement (FIG. 3B).

[5] = tested on: Yellow Fever virus; assay: microbe, parasite or virus in culture; assay type: cell-based
[6] = Solubility: saturated solution in PBS at room temperature; assay type: physicochemical; details: aqueous buffer
Text: 3. The symbol "*" denotes the concentration of the saturated solution in
PBS at room temperature.

[7] = tested on: HBsAg in HepA2 cells; assay: Suppression of HBsAg secretion in HepA2 cells, serum-free, 2 days; assay type: cell-based; details: Homo sapiens, HepA2, 48 h, read-out: EC50 HepA2 (50% reduction of HBsAg secretion)
Text: (§1) Biological testing results of Helioxanthin and
(§2) its derivatives for suppression of HBsAg
(§3) in HepA2 and Hep3B cells in serum-free condition for 2 days
The symbol, "*" denotes HepA2, HBV DNA stable transfected HBV dimer DNA.
(§4) The symbol, "**" denotes EC50, the concentration of tested compounds
(§5) which exerted 50% reduction of HBsAg secretion in human hepatoma cells.

[8] = tested on: HBV; assay: microbe, parasite or virus in culture; assay type: cell-based, Hepatitis B virus; details: for inhibition of HBV replication / DNA level: in words
[9] = tested on: HBsAg; assay: microbe, parasite or virus in culture; assay type: cell-based, Hepatitis B virus
[10] = tested on: HBsAg in Hep3B cells; assay: Suppression of HBsAg secretion in Hep3B cells, serum-free, 2 days; assay type: cell-based; details: Homo sapiens, 48 h, read-out: EC50 Hep3B (50% reduction of HBsAg secretion)
Text: as §1, §2, §3, §4, §5

[11] = Cytotoxicity, HepG2 cell growth; assay type: cell-based; details: human, hepg2 cells; 3 days; read-out: Cytotoxicity (IC50) HepG2 cell
Description: (§6) To determine the cellular toxicity of the present compounds, the T-lymphoblastoic cell line (CEM) and the HEP-G2 cell line (parent cell line from which 2.2.15 cell line is produced) were used. Cells were subjected to varying concentrations of the drug(s) and cell numbers were determined 3 days post treatment by the method described by Chen, C-H and Cheng, Y-C, J. Biol. Chem., 264, 11934 (1989). Concentrations of the drug which would result in inhibition of cell growth were determined from the plot generated by representing cell numbers corresponding to the individual drug concentrations.

[12] = Cytotoxicity, CEM cell growth; assay type: cell-based; details: human, cem cells; 3 days; read-out: Cytotoxicity (IC50) CEM cell
Description: as §6

Row | SMILES | effect on HBV infection [1] | sensitivity of HBV DNA production of WT10 to 3TC [2] | sensitivity of HBV DNA production of DM2 to 3TC ([3]; DM2) | HBV RNA level [4] | HBV RNA level ([4]; listed as helioxanthin) | effect on 3TC resistant HBV [3] | effect on 3TC resistant HBV ([3]; listed as helioxanthin) | EC50 ([5]; Yellow fever virus, BHK, 144 h, read-out: Anti-viral activity (ED50) YFV, plaque reduction, BHK cells, 6 days) | activity against the Yellow fever virus ([5]; in words) | solubility [6] | EC50 [7] | EC50 ([8]; Hepatitis B virus, 144 h) | inhibition of HBV replication / DNA level [8] | inhibition of HBV replication / DNA level ([8]; listed as helioxanthin) | EC50 ([9]; Hepatitis B virus, 144 h, read-out: Anti-viral activity (ED50) HbsAg) | HbsAg expression inhibition ([9]; in words) | EC50 [10] | CC50 at 72 h [11] | CC50 at 72 h [12]
1 | Nc1ccn([C@@H]2CS[C@H](CO)O2)c(=O)n1 [Compound 3TC] | recurrence of HBV after a period of treatment | sensitive | resistant |  |  |  |  |  |  |  |  |  |  |  |  |  |  |  | 
2 | O=C1OCc2c1cc1ccc3c(c1c2-c1ccc2c(c1)OCO2)OCO3 [Compound 145, 7,8-methylenedioxy-1-(3',4'-methylenedioxyphenyl)-2-hydroxymethylnaphthalene-3-carboxylic acid lactone] |  |  |  | decreased the RNA and DNA level; also recorded: decrease the RNA level of HBV | decreased the RNA level | excellent anti-HBV activity even in 3TC (L(-)SddC) resistant HBV | stronger inhibition of viral replication of strains of HBV that have become resistant to 3TC | 9.5 µM | demonstrated activity against the Yellow fever virus | 24.7 µM (≈ 8.6 µg/mL) | 0.25 µM | 1 µM | selectively inhibited HBV replication; also recorded: decreased the RNA and DNA level; also recorded: the most active compound in the series tested; also recorded: inhibit HBV replication in cell culture | selectively inhibited HBV replication | 4 µM | inhibit HBV replication and HbsAg expression | 0.025 µM | 26 µM | 22 µM
